Measured values published in BindingDB's records for doi:10.1016/j.bmcl.2019.04.027 (Gilead Sciences, 2019).

How the values were obtained:
[1] = Inhibition of NS5A in HCV genotype 2a J6 infected in human HuH7 replicon cells assessed as reduction in viral replication after 3 days by luciferase reporter gene assay
[2] = Inhibition of NS5A in HCV genotype 6a HK6 infected in human HuH7 replicon cells assessed as reduction in viral replication after 3 days by luciferase reporter gene assay
[3] = Inhibition of NS5A in HCV genotype 1a H77 infected in human HuH7 replicon cells assessed as reduction in viral replication after 3 days by luciferase reporter gene assay
[4] = Inhibition of NS5A in HCV genotype 1b Con1 infected in human HuH7 replicon cells assessed as reduction in viral replication after 3 days by luciferase reporter gene assay
[5] = Inhibition of NS5A in HCV genotype 3a S52 infected in human HuH7 replicon cells assessed as reduction in viral replication after 3 days by luciferase reporter gene assay
[6] = Inhibition of NS5A in HCV genotype 6e D88 infected in human HuH7 replicon cells assessed as reduction in viral replication after 3 days by luciferase reporter gene assay
[7] = Inhibition of NS5A in HCV genotype 2a JFH1 infected in human HuH7 replicon cells assessed as reduction in viral replication after 3 days by luciferase reporter gene assay
[8] = Inhibition of NS5A in HCV genotype 4a ED43 infected in human HuH7 replicon cells assessed as reduction in viral replication after 3 days by luciferase reporter gene assay
[9] = Inhibition of NS5A in HCV genotype 5a SA13 infected in human HuH7 replicon cells assessed as reduction in viral replication after 3 days by luciferase reporter gene assay
[10] = Inhibition of NS5A in HCV genotype 2b MD2b-1 infected in human HuH7 replicon cells assessed as reduction in viral replication after 3 days by luciferase reporter gene assay
[11] = Inhibition of NS5A in wild type HCV genotype 3a infected in human HuH7 replicon cells assessed as reduction in viral replication after 3 days by luciferase reporter gene assay
[12] = Inhibition of NS5A in wild type HCV genotype 1a infected in human HuH7 replicon cells assessed as reduction in viral replication after 3 days by luciferase reporter gene assay
[13] = Inhibition of NS5A in wild type HCV genotype 1b infected in human HuH7 replicon cells assessed as reduction in viral replication after 3 days by luciferase reporter gene assay
[14] = Inhibition of NS5A in HCV wild type genotype 2a infected in human HuH7 replicon cells assessed as reduction in viral replication after 3 days by luciferase reporter gene assay
[15] = Inhibition of NS5A Y93H mutant in HCV genotype 1b infected in human HuH7 replicon cells assessed as reduction in viral replication after 3 days by luciferase reporter gene assay
[16] = Inhibition of NS5A K44R mutant in HCV genotype 2a infected in human HuH7 replicon cells assessed as reduction in viral replication after 3 days by luciferase reporter gene assay
[17] = Inhibition of NS5A Q30R mutant in HCV genotype 1a infected in human HuH7 replicon cells assessed as reduction in viral replication after 3 days by luciferase reporter gene assay
[18] = Inhibition of NS5A Q30E mutant in HCV genotype 1a infected in human HuH7 replicon cells assessed as reduction in viral replication after 3 days by luciferase reporter gene assay
[19] = Inhibition of NS5A M28T mutant in HCV genotype 1a infected in human HuH7 replicon cells assessed as reduction in viral replication after 3 days by luciferase reporter gene assay
[20] = Inhibition of NS5A Q30H mutant in HCV genotype 1a infected in human HuH7 replicon cells assessed as reduction in viral replication after 3 days by luciferase reporter gene assay
[21] = Inhibition of NS5A L31M mutant in HCV genotype 1a infected in human HuH7 replicon cells assessed as reduction in viral replication after 3 days by luciferase reporter gene assay
[22] = Inhibition of NS5A Y93C mutant in HCV genotype 1a infected in human HuH7 replicon cells assessed as reduction in viral replication after 3 days by luciferase reporter gene assay
[23] = Inhibition of NS5A Y93H mutant in HCV genotype 1a infected in human HuH7 replicon cells assessed as reduction in viral replication after 3 days by luciferase reporter gene assay
[24] = Inhibition of NS5A N62V mutant in HCV genotype 2a infected in human HuH7 replicon cells assessed as reduction in viral replication after 3 days by luciferase reporter gene assay
[25] = Inhibition of NS5A N62S mutant in HCV genotype 2a infected in human HuH7 replicon cells assessed as reduction in viral replication after 3 days by luciferase reporter gene assay
[26] = Inhibition of NS5A R44K mutant in HCV genotype 2b infected in human HuH7 replicon cells assessed as reduction in viral replication after 3 days by luciferase reporter gene assay
[27] = Inhibition of NS5A A30K mutant in HCV genotype 3a infected in human HuH7 replicon cells assessed as reduction in viral replication after 3 days by luciferase reporter gene assay
[28] = Inhibition of NS5A Y93H mutant in HCV genotype 3a infected in human HuH7 replicon cells assessed as reduction in viral replication after 3 days by luciferase reporter gene assay
[29] = Inhibition of NS5A P58S mutant in HCV genotype 2b infected in human HuH7 replicon cells assessed as reduction in viral replication after 3 days by luciferase reporter gene assay
[30] = Inhibition of NS5A in wild type HCV genotype 2b MD2b-1 infected in human HuH7 replicon cells assessed as reduction in viral replication after 3 days by luciferase reporter gene assay
[31] = Inhibition of NS5A in wild type HCV genotype 2b AY232738 infected in human HuH7 replicon cells assessed as reduction in viral replication after 3 days by luciferase reporter gene assay
[32] = Inhibition of NS5A L31M mutant in HCV genotype 2a J6 (M31) infected in human HuH7 replicon cells assessed as reduction in viral replication after 3 days by luciferase reporter gene assay

Structure (SMILES) | EC50 [1] | EC50 [2] | EC50 [3] | EC50 [4] | EC50 [5] | EC50 [6] | EC50 [7] | EC50 [8] | EC50 [9] | EC50 [10] | EC50 [11] | EC50 [12] | EC50 [13] | EC50 [14] | EC50 [15] | EC50 [16] | EC50 [17] | EC50 [18] | EC50 [19] | EC50 [20] | further results
COC(=O)N[C@H](C(=O)N1CC2(CC2)C[C@H]1c1nc(-c2ccc3c(c2)C(F)(F)c2cc(-c4ccc5[nH]c([C@@H]6[C@H]7CC[C@H](C7)N6C(=O)[C@@H](NC(=O)OC)C(C)C)nc5c4)ccc2-3)c[nH]1)C(C)C [CHEBI:85089] | 249 nM | 1.1 nM | 0.031 nM | 0.004 nM | 168 nM | 264 nM | 21 nM | 0.39 nM | 0.15 nM | 530 nM | > 45 nM | 0.031 nM | 0.004 nM | 209 nM | 7.2 nM | 164 nM | 20 nM | 169 nM | 1.9 nM | 5.7 nM | EC50 [21]: 17 nM; EC50 [22]: 50 nM; EC50 [23]: 52 nM; EC50 [24]: 222 nM; EC50 [25]: 123 nM; EC50 [26]: 943 nM; EC50 [27]: > 89 nM; EC50 [28]: > 89 nM; EC50 [29]: 292 nM; EC50 [30]: 865 nM; EC50 [31]: 211 nM
COC[C@H]1C[C@@H](c2nc(-c3ccc4c(c3)COc3cc5c(ccc6nc([C@@H]7CC[C@H](C)N7C(=O)[C@@H](NC(=O)OC)C(C)C)[nH]c65)cc3-4)c[nH]2)N(C(=O)[C@H](NC(=O)OC)c2ccccc2)C1 [GS-5816] | 0.016 nM | 0.006 nM | 0.014 nM | 0.016 nM | 0.004 nM | 0.13 nM | 0.008 nM | 0.009 nM | 0.054 nM | 0.006 nM | 0.013 nM | 0.014 nM | 0.016 nM | 0.009 nM | 0.011 nM | 0.005 nM | 0.031 nM | 0.25 nM | 0.105 nM | 0.032 nM | EC50 [21]: 0.22 nM; EC50 [22]: 0.053 nM; EC50 [23]: 8.5 nM; EC50 [24]: 0.01 nM; EC50 [25]: 0.003 nM; EC50 [26]: 0.011 nM; EC50 [27]: 0.21 nM; EC50 [28]: 3.2 nM; EC50 [29]: 0.01 nM; EC50 [30]: 0.004 nM; EC50 [31]: 0.007 nM; EC50 [32]: 0.016 nM
